Assay results published in ChEMBL document CHEMBL4680141, “Novel benzimidazole-acrylonitrile hybrids and their derivatives: Design, synthesis and antimycobacterial activity” (2020).
Converted amounts (≈) assume the structure as drawn.

Each compound was assayed on Mycobacterium tuberculosis (assay: Antimycobacterial activity against Mycobacterium tuberculosis H37Rv assessed as inhibition of bacterial growth incubated for 7 days by MABA assay). Settings: 168 h, time 7 day.
Assay type: functional
In the case of `COc1cccc(N2CCN(c3ccc(/C=C(\C#N)c4nc5ccccc5[nH]4)cc3)CC2)c1`, the MIC is reported as over 25 µg/mL.
In the case of `Cc1ccc(N2CCN(c3ccc(/C=C(\C#N)c4nc5ccccc5[nH]4)cc3)CC2)cc1`, the MIC is reported as 0.78 µg/mL (≈ 1.86 µM).
In the case of `N#C/C(=C\c1ccc(N2CCN(c3ccc(F)cc3)CC2)cc1)c1nc2ccccc2[nH]1`, the MIC is reported as over 25 µg/mL.
For `CC(=O)N1CCN(c2ccc(/C=C(\C#N)c3nc4ccccc4[nH]3)cc2)CC1`, the MIC was 12.5 µg/mL (≈ 33.7 µM).
For `CN1CCN(c2ccc(/C=C(\C#N)c3nc4ccccc4[nH]3)cc2)CC1`, the MIC was over 25 µg/mL.
`N#C/C(=C\c1ccc(N2CCN(Cc3ccc(F)cc3)CC2)cc1)c1nc2ccccc2[nH]1` showed an MIC of 25 µg/mL (≈ 57.1 µM).
Compound `N#C/C(=C\c1ccc(N2CCN(c3ccc(Br)cc3)CC2)cc1)c1nc2ccccc2[nH]1` has an MIC of over 25 µg/mL.
For `N#C/C(=C\c1ccc(N2CCN(Cc3ccccc3)CC2)cc1)c1nc2ccccc2[nH]1`, the MIC was over 25 µg/mL.
`N#C/C(=C\c1ccc(N2CCN(c3ccccc3)CC2)cc1)c1nc2ccccc2[nH]1` was tested, and the MIC was 6.25 µg/mL (≈ 15.4 µM).
`N#C/C(=C\c1ccc(N2CCN(C3CCCCC3)CC2)cc1)c1nc2ccccc2[nH]1` gave an MIC of over 25 µg/mL.
In the case of `N#C/C(=C\c1ccc(N2CCN(c3cccc(Cl)c3)CC2)cc1)c1nc2ccccc2[nH]1`, the MIC is reported as over 25 µg/mL.
In the case of `COc1ccc(N2CCN(c3ccc(/C=C(\C#N)c4nc5ccccc5[nH]4)cc3)CC2)cc1`, the MIC is reported as 6.25 µg/mL (≈ 14.4 µM).
For `COc1ccc(N2CCN(c3ccc(CC(C#N)c4nc5ccccc5[nH]4)cc3)CC2)cc1` (stereo not given), the MIC was over 25 µg/mL.
`N#CC(Cc1ccc(N2CCN(c3ccccc3)CC2)cc1)c1nc2ccccc2[nH]1` (stereo not given) gave an MIC of over 25 µg/mL.
`CC[C@@H](CO)NCCN[C@@H](CC)CO` [ETHAMBUTOL] gave an MIC of 1.56 µg/mL (≈ 7.64 µM).
In the case of `NNC(=O)c1ccncc1` [ISONIAZID], the MIC is reported as 0.05 µg/mL (≈ 0.365 µM).
`Cc1ccc(N2CCN(c3ccc(CC(C#N)c4nc5ccccc5[nH]4)cc3)CC2)cc1` (stereo not given) was tested, and the MIC was over 25 µg/mL.
For `CO[C@H]1/C=C/O[C@@]2(C)Oc3c(C)c(O)c4c(O)c(c(/C=N/N5CCN(C)CC5)c(O)c4c3C2=O)NC(=O)/C(C)=C\C=C\[C@H](C)[C@H](O)[C@@H](C)[C@@H](O)[C@@H](C)[C@H](OC(C)=O)[C@@H]1C` [RIFAMPIN], the MIC was 0.1 µg/mL (≈ 0.122 µM).
In the case of `N#C/C(=C\c1ccc(N2CCN(c3ccc(Cl)cc3)CC2)cc1)c1nc2ccccc2[nH]1`, the MIC is reported as over 25 µg/mL.

Each compound was assayed on Mycobacterium tuberculosis (assay: Antimycobacterial activity against Mycobacterium tuberculosis H37Rv assessed as inhibition of bacterial growth by MABA assay). Settings: not given.
Assay type: functional
Work on `N#C/C(=C\c1ccccc1)n1nnc2ccccc21` yielded an MIC of 6.25 µg/mL (≈ 25.4 µM).

These compounds were tested on Mycobacterium tuberculosis (assay: Antimycobacterial activity against dormant form of Mycobacterium tuberculosis H37Rv assessed as log fold reduction in bacterial count at 10 ug/ml under nutrient starvation condition after 7 days by MPN assay). Settings: dose 10 µg/ml; time 7 day.
Assay type: functional
For `Cc1ccc(N2CCN(c3ccc(/C=C(\C#N)c4nc5ccccc5[nH]4)cc3)CC2)cc1`, the FC was 2.8.
Compound `O=C(O)c1cn(C2CC2)c2cc(N3CCNCC3)c(F)cc2c1=O` [CIPROFLOXACIN] has an FC of 1.5.
Work on `COc1c(N2C[C@@H]3CCCN[C@@H]3C2)c(F)cc2c(=O)c(C(=O)O)cn(C3CC3)c12` [MOXIFLOXACIN] yielded an FC of 1.5.
For `NNC(=O)c1ccncc1` [ISONIAZID], the FC was 1.5.
Work on `CO[C@H]1/C=C/O[C@@]2(C)Oc3c(C)c(O)c4c(O)c(c(/C=N/N5CCN(C)CC5)c(O)c4c3C2=O)NC(=O)/C(C)=C\C=C\[C@H](C)[C@H](O)[C@@H](C)[C@@H](O)[C@@H](C)[C@H](OC(C)=O)[C@@H]1C` [RIFAMPIN] yielded an FC of 1.5.
